Measured values taken from patent US5089516A, “1-phenyl-3,5-pyrazolidinedione hydroxystyrene compounds which have tyrosine kinase inhibiting activity” (Kanegafuchi Kagaku Kogyo Kabushiki Kaisha, priority 1987, dated 1992).

What was measured:
[1] = molecular target: T1, epidermal growth factor receptor-tyrosine kinase complex (Homo sapiens, UniProt P00533); experiment: Tyrosine kinase inhibiting activity (A-431 membrane preparation, EGF-stimulated); format: biochemical; settings: read-out: Tyrosine kinase inhibition rate; for inhibition at 1 µM: 1 μM in the reaction mixture; for inhibition at 10 µM: 10 μM in the reaction mixture
T1 construct: The membrane preparation was employed in the following measurement without solubilization; endogenous in cells; host or cells: A-431 (ATCC CRL1555), membrane preparation, not solubilized
Method in brief: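 Unsolubilized A-431 membranes (10 μg protein) in 20 mM HEPES pH 7.4 with 1 mM MnCl2 were preincubated with compound (DMSO) 5 min at 0° C, stimulated with 100 ng EGF 15 min, then phosphorylated with [γ-32P]ATP 15 min at 0° C. TCA-precipitated radioactivity on filter counted; inhibition % calculated against no-EGF and no-compound controls.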

5-lipoxygenase = molecular target: T2, 5-lipoxygenase (Cavia porcellus, UniProt A0A286X958); experiment: 5-Lipoxygenase inhibiting activity (5-HETE formation, cytosol of peritoneal exudate cells); format: biochemical, Hartley guinea pigs; settings: read-out: Inhibition rate (5-lipoxygenase); for inhibition at 10 µM: 10 μM in the reaction mixture; for inhibition at 1 µM: 1 μM in the reaction mixture
T2 construct: The cytosol fraction was used as an enzyme solution; from tissue; host or cells: peritoneal exudate cells of casein-injected Hartley guinea pigs, 105,000×g cytosol
T2 sequence (A0A286X958 1-674): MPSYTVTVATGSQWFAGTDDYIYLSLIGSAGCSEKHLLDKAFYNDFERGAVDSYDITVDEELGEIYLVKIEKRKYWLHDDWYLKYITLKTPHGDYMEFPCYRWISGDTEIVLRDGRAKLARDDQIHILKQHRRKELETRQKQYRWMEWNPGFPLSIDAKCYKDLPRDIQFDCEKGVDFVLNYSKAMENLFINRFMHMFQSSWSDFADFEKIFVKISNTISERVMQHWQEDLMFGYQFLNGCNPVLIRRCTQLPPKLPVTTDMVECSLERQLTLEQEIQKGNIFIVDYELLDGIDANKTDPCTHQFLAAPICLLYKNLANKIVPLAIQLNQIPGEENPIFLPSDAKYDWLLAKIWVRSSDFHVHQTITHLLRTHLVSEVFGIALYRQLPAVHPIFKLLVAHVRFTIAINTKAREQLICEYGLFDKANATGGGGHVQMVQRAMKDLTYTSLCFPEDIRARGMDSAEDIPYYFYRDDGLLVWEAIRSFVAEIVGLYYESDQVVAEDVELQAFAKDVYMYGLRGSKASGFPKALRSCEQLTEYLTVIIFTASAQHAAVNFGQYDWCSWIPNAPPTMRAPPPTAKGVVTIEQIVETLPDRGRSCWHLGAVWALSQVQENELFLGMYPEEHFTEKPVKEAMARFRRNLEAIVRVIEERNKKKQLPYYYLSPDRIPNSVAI
Method in brief: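 Enzyme source: cytosol (105,000×g supernatant) of casein-elicited guinea pig peritoneal exudate cells, preincubated 5 min at 30 °C with compound (2% ethanol final), 1 mM CaCl2, 1 mM GSH, 2 mM ATP, then 5 min with 20 μM [1-14C]arachidonic acid. 5-HETE separated by TLC, counted by scintillation; % inhibition versus ethanol control.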

T1 sequence (P00533 25-1210, one chain of several): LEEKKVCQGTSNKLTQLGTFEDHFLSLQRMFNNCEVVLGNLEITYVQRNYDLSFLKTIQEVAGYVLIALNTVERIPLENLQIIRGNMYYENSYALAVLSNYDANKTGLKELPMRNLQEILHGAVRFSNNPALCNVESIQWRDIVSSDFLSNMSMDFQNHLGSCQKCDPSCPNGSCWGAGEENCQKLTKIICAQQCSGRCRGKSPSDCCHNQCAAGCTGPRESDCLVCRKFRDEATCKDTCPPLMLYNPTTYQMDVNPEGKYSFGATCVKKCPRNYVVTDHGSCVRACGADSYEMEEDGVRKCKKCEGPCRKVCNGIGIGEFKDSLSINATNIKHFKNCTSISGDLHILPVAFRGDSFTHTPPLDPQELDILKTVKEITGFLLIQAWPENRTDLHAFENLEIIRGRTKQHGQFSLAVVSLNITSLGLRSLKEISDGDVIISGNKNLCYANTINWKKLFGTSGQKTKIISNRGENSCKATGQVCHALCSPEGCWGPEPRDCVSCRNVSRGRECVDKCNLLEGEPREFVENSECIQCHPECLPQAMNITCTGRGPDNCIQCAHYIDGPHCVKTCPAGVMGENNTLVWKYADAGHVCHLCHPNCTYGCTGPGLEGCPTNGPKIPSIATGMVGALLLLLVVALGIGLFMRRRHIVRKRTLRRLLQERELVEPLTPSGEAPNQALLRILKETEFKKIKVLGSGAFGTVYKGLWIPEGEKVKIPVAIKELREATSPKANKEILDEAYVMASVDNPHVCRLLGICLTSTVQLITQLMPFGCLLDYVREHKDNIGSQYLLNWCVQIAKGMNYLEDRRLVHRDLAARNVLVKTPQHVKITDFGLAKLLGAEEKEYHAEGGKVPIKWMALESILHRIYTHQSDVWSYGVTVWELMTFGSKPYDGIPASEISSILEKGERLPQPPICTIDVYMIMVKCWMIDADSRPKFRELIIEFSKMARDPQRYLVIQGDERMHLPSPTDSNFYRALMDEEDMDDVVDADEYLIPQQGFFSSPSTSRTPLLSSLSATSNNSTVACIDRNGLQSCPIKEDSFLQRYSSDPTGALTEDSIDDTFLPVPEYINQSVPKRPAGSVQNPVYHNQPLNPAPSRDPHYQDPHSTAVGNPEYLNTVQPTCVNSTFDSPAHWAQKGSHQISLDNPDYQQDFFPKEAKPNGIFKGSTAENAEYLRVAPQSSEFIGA

Compound	inhibition at 1 µM [1]	inhibition at 10 µM (5-lipoxygenase)	inhibition at 10 µM [1]	inhibition at 1 µM (5-lipoxygenase)
O=C1NC(=S)SC1=Cc1cc(Cc2ccccc2)c(O)c(Cc2ccccc2)c1 [Compound 2]	20%	78%		
O=C1NC(=S)SC1=Cc1cc(O)c(O)c(CSc2ccccc2)c1 [Compound 7]			59%	88%
O=C1NC(=S)SC1=Cc1cc(CSc2ccccc2)c(O)c(OCc2ccccc2)c1 [Compound 8]			69%	61%
CCCCOc1cc(C=C2SC(=S)NC2=O)cc(CSc2ccccc2)c1O [Compound 9]			50%	91%
CCCCOc1cc(C=C2SC(=S)NC2=O)cc(Cc2ccccc2)c1O [Compound 10]	40%			23%
O=C1Nc2ccccc2C1=Cc1cc(O)c(O)c(CSc2ccccc2)c1 [Compound 11]			52%	87%
O=C1NN(c2ccccc2)C(=O)C1=Cc1cc(Cc2ccccc2)c(O)c(Cc2ccccc2)c1 [Compound 20]	46%	83%		
O=C1NN(c2ccccc2)C(=O)C1=Cc1cc(O)c(O)c(Cc2ccccc2)c1 [Compound 24]	37%			48%
O=C1N=C(NCc2ccccc2)SC1=Cc1cc(Cc2ccccc2)c(O)c(Cc2ccccc2)c1 [Compound 26]			62%	84%
O=C1N=C(NCc2cccs2)SC1=Cc1cc(CSc2ccccc2)c(O)c(OCc2ccccc2)c1 [Compound 31]			41%	49%
CC(C)c1cc(C=C2SC(NCc3ccccc3)=NC2=O)cc(C(C)C)c1O [Compound 33]		82%	69%	
CC(C)c1cc(C=C2SC(NCc3ccc(F)cc3)=NC2=O)cc(C(C)C)c1O [Compound 35]	70%	89%		
CC(C)c1cc(C=C2SC(NCc3ccc(Cl)c(Cl)c3)=NC2=O)cc(C(C)C)c1O [Compound 37]		89%	83%	
Cc1ccc(CNC2=NC(=O)C(=Cc3cc(C(C)C)c(O)c(C(C)C)c3)S2)cc1 [Compound 39]		87%	43%	
CC(C)c1cc(C=C2SC(NCc3ccc(S(N)(=O)=O)cc3)=NC2=O)cc(C(C)C)c1O [Compound 41]		89%	70%	
CC(C)c1cc(C=C2SC(NCc3ccc(N)cc3)=NC2=O)cc(C(C)C)c1O [Compound 42]	85%	88%		
